This note sets out measurements from patent US10683453B2, “Organic compounds with soluble groups” (Merck Patent GmbH, priority 2014, dated 2020).

The series is described as follows: Determination of solubility in toluene. In kind it is physicochemical. As to conditions: stirred at 60° C. for 1 h, cooled to room temperature, yes = clear solution lacking any large particles. How it is done:
Determination of Solubility
In order to examine whether a material has a toluene solubility of 10 mg/ml or more, the procedure is as follows: 20 mg of material in solid form are initially charged in a sample bottle. At room temperature (20° C.), 2 ml of toluene are added. The bottle is closed and the contents are stirred at 60° C. on a heatable magnetic stirrer for 1 h. In the course of this, good thermal contact is ensured by means of an aluminium block having holes into which the bottles fit exactly. After 1 h, the bottle is removed and left to cool to room temperature. If a clear solution lacking any large particles is present in the bottle, at least 10 mg/ml of the material are soluble in toluene.
Solubilities with other solubility limits are determined in entirely the same way. The starting weight is also matched to 2 ml of solvent.

Take `CCCCCCc1cc(CCCCCC)cc(N2c3ccccc3C3(c4ccccc4C(=C(C#N)C#N)c4ccccc43)c3ccccc32)c1` [Compound 9a]: the “Solubility in toluene > 2 mg/ml” value was “yes”, the “Solubility in toluene > 5 mg/ml” value was “yes” and the “Solubility in toluene > 10 mg/ml” value is “yes”.

As to `N#Cc1c(-n2c3ccccc3c3ccccc32)c(C#N)c(-n2c3ccccc3c3ccccc32)c(-n2c3ccccc3c3ccccc32)c1-n1c2ccccc2c2ccccc21` [reference compound], the “Solubility in toluene > 2 mg/ml” value is reported as “yes”, the “Solubility in toluene > 5 mg/ml” value is recorded as “no” and the “Solubility in toluene > 10 mg/ml” value is recorded as “no”.

As to `N#CC(C#N)=C1c2ccccc2C2(c3ccccc31)c1ccccc1N(c1ccccc1)c1ccccc12` [reference compound], the “Solubility in toluene > 2 mg/ml” value is “yes”, the “Solubility in toluene > 5 mg/ml” value was “no” and the “Solubility in toluene > 10 mg/ml” value is “no”.

Turning to `CCCCCCc1ccc2c(c1)c1cc(CCCCCC)ccc1n2-c1c(C#N)c(-n2c3ccc(CCCCCC)cc3c3cc(CCCCCC)ccc32)c(C#N)c(-n2c3ccc(CCCCCC)cc3c3cc(CCCCCC)ccc32)c1C#N` [Compound 19d], the “Solubility in toluene > 2 mg/ml” value was “yes”, the “Solubility in toluene > 5 mg/ml” value is given as “yes” and the “Solubility in toluene > 10 mg/ml” value is reported as “yes”.

With `N#Cc1ccc2c(c1)C1(c3cc(C#N)ccc3-2)c2ccccc2N(c2cc(-c3ccccc3)cc(-c3ccccc3)c2)c2ccccc21` [Compound 6a, 2′,7′-Cyano-10H-terphenyl-10H-spiro(acridine-9,9′-fluorene)], the “Solubility in toluene > 2 mg/ml” value is “yes”, the “Solubility in toluene > 5 mg/ml” value is given as “yes” and the “Solubility in toluene > 10 mg/ml” value is recorded as “no”.

For `N#Cc1ccc2c(c1)C1(c3cc(C#N)ccc3-2)c2ccccc2N(c2ccccc2)c2ccccc21` [reference compound], the “Solubility in toluene > 2 mg/ml” value is on record as “no”, the “Solubility in toluene > 5 mg/ml” value is recorded as “no” and the “Solubility in toluene > 10 mg/ml” value was “no”.

On to `N#CC(C#N)=C1c2ccccc2C2(c3ccccc31)c1ccccc1N(c1c(-c3ccccc3)cc(-c3ccccc3)cc1-c1ccccc1)c1ccccc12` [Compound 9e], for which the “Solubility in toluene > 2 mg/ml” value is “yes”, the “Solubility in toluene > 5 mg/ml” value is reported as “yes” and the “Solubility in toluene > 10 mg/ml” value is “no”.
